Measurements taken from US20120101147A1, “INHIBITION OF HDAC2 TO PROMOTE MEMORY” (The General Hospital Corporation d/b/a Massachusetts …, priority 2008, published 2012).

Tests used:
tetra-acetylated H2B [1] = test: Western blot of whole brain after chronic administration: tetra-acetylated H2B; assay type: in vivo, mice; settings: every day for 10 days
tetra-acetylated H2B [2] = test: Western blot of cortex after acute treatment: tetra-acetylated H2B; assay type: in vivo, mice
Description: (§1) The experimental protocol for acute treatment with BRD-6929 and the corresponding effects on histone acetylation in brain specific regions of adult male C57BL/6J mice is shown in FIG. 18. Crude Protein Lysis Protocol for western blot analysis of specific brain sections.
(§2) a. On ice, thaw frozen tissue and immediately homogenize carefully in 250 uL of ice-cold Suspension Buffer.
(§3) b. As soon as possible, add an equal volume of 2×SDS gel-loading buffer, pipetting up and down to mix.
(§4) 2. Place the sample at 95° C. for 5 min.
(§5) 3. Shear viscous chromosomal DNA by smoothly passaging through 23-25 gauge hypodermic needle (2-3×) or by sonicating briefly (Al used the needle method and it worked fine). Avoid foaming/bubbles.
(§6) 4. Centrifuge the sample at 10,000 g for 10 min at room temperature, transferring supernatant to fresh tube.

HDAC8 = target: T1, HDAC8 (Homo sapiens, UniProt Q9BY41); test: In vitro enzymatic inhibition assay against HDAC isoforms; assay type: biochemical
T1 sequence (Q9BY41 1-377): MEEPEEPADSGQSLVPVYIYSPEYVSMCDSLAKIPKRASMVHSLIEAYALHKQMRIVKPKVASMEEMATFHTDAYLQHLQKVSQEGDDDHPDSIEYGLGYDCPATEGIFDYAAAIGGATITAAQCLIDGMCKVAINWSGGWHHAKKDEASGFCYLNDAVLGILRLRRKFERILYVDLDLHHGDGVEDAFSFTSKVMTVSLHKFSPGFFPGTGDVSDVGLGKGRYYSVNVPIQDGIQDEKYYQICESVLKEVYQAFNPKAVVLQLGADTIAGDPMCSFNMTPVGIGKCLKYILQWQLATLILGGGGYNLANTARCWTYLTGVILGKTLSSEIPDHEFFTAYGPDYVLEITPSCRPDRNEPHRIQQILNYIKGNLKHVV
Description: (§7) The enzymatic inhibitory activity of multiple HDAC inhibitors was assayed against several of the known HDAC isoforms and is shown in FIG. 8. SAHA was included as a reference mixed class I-class II inhibitor. […] All of the BRD numbered compounds are derived from the ortho-anilide class of compounds. Not all compounds from this class are expected to bind the class II HDACs.

Class II HDAC enzymes = test: as above; assay type: biochemical
Description: as §7

tetra-acetylated H4 = test: Western blot of tetra-acetylated H4 in primary striatal cells; assay type: cell-based, mouse; settings: relative to DMSO controls
Description: (§8) Four compounds were tested including CI-994 (BRD-3696) and SAHA. […] BRD-6929 and BRD-5298 treatment results in a 2-5 fold increase in both marks at 1 and 10 uM.

mice = test: Context-dependent fear conditioning memory test; assay type: in vivo, mouse; settings: C57/BL6 WT mice; 45 mg/kg every day for 10 days; foot shock 0.8 mA
Description: Fear conditioning tests Context-dependent fear conditioning. Training consists of a 3 min exposure of mice to the conditioning box (context) followed by a foot shock (2 sec, 0.5/0.8/1.0 mA, constant current). The memory test was performed 24 hr later by re-exposing the mice for 3 min into the conditioning context. Freezing, defined as a lack of movement except for heart beat and respiration associated with a crouching posture, was recorded every 10 sec by two trained observers (one was unaware of the experimental conditions) during 3 min (a total of 18 sampling intervals). The number of observations indicating freezing obtained as a mean from both observers was expressed as a percentage of the total number of observations.
Chemical administration Suberoylanilide hydroxamic acid (SAHA) was synthesized as described previously in WO 93/07148 PTC/US92/08454. Sodium butyrate was purchased from Sigma (cat.B5887). SAHA and WT-161 were dissolved in DMSO as stock solutions and diluted in saline just before injection. Sodium butyrate was prepared in saline. Mice received intraperitoneal injection daily with either SAHA or saline for 10 days or 21 days.
C57/BL6 WT mice were injected with vehicle or BRD-6929 for 10 days. On day 11, mice were trained in contextual fear conditioning paradigm (Training consisted of a 3 min exposure of mice to the conditioning box (context, TSE) followed by a foot shock (2 sec, 0.8 mA, constant current). One hour after training, mice were injected with BRD-6929 or vehicle. On day 12, mice were returned to the training box and the freezing behavior were monitored and recorded.

HDAC1,2 vs. HDAC3 = test: Selectivity for HDAC1,2 vs. HDAC3; assay type: biochemical
Source text: All of the BRD numbered compounds are derived from the ortho-anilide class of compounds.
Two sets of data with 3 independent samples/set are presented. Histograms representing the quantification of westerns are also shown.

tetra-acetylated H2B [3] = test: Western blot of tetra-acetylated H2B in primary striatal cells; assay type: cell-based, mouse; settings: relative to DMSO controls
Description: as §8

H2BK5 = test: Western blot of cortex after acute treatment: H2BK5 acetylation; assay type: in vivo, mice; settings: cortex after 1 hour
Description: as §1, §2, §3, §4, §5, §6

H2B acetylation = test: Immunofluorescence: H2B acetylation in primary neuronal cell cultures; assay type: cell-based, mouse; settings: 1 and 10 uM, 6 h
Description: (§9) 1) Compounds were pin transferred from 384-well plates (Abgene) using a 185 nl pin tool using a no touch bottom protocol.
(§10) 1) Media was aspirated using a plate washer (Tecan) protocol that leaves ˜5 ul residual volume and without touching the bottom of plates); or alternatively, wells were gently aspirated to remove media with 12-channel aspirator wand.
(§11) 2) A multichannel pipet or use liquid handling system (e.g. Combi, standard tubing; slow speed) was used to add 75 ul formaldehyde (4% in PBS) and wells incubated 10 min at room temperature.
(§12) 3) Formaldehyde was aspirated and cells rinsed 3 times with 100 ul PBS;
(§13) 4) PBS was aspirated and 100 ul blocking/permeablization buffer (0.1% Triton-X100, 2% BSA, in PBS) added and wells incubate 1 hour at room temperature.
(§14) 5) Blocking buffer was aspirated and 50 ul primary antibody diluted 1:500 in blocking buffer was added and wells incubated overnight at 4 degrees.
(§15) 1) Primary antibody was aspirated and wells rinsed 3 times with 100 ul blocking buffer
(§16) 2) 50 ul of secondary antibody diluted 1:500 and with Hoeschst (1:1000 from 10 mg/mL (16 mM) stock) added and wells incubated 1.5 hours at room temperature covered in foil to prevent photobleaching.
(§17) 3) Wells were rinsed 3 times with 100 ul PBS, and a 100 uls of PBS added and the plates, sealed
(§18) 4) Plates were then read on Acumen/IX Micro

[4] = Pharmacokinetics in plasma and brain after single i.p. dose; assay type: in vivo; settings: single 45 mg/kg i.p.; C-57 mice
Description: FIG. 17 is the concentration-time curve of BRD-6929 in plasma and brain following single 45 mg/kg i.p. dose in mice.
FIG. 17 represents a summary of the pharmacokinetic data after a single dose of 45 mg/kg BRD-6929 administered systemically via intraperitoneal injection. The concentration time curves for BRD-6929 in the plasma and brain of C-57 mice from 5 min to 24 h are shown.

[5] = test system: primary neuronal cultures; test: Immunofluorescence: overall cell number in primary neuronal cultures; assay type: cell-based, mouse; settings: 1 and 10 uM, 6 h
Description: as §9, §10, §11, §12, §13, §14, §15, §16, §17, §18

[6] = test system: H4K12 acetylation in primary striatal cells; test: Western blot of H4K12 acetylation in primary striatal cells; assay type: cell-based, mouse; settings: 1 and 10 uM; relative to DMSO
Source text: A. Western blots of primary striatal cells isolated from mouse brain that have been treated with HDAC inhibitors. Two sets of data with 3 independent samples/set. B. Histograms represent the quantification of westerns shown in panel A.
Two sets of data with 3 independent samples/set are presented. Histograms representing the quantification of westerns are also shown. Relative to DMSO controls, BRD-6929 has a significant effect on the acetylation levels of histone locus H4K12. BRD-6929 treatment results in a 5-10 fold increase at 1 and 10 uM. BRD-6929 is an HDAC 1,2 selective compound, and has 200× selectivity for HDAC1,2 vs. HDAC3. […] In this case the data was compared to controls: SAHA and BRD-3696 (CI-994). An HDAC1,2 selective compound is as effective at increasing acetylation as an HDAC1,2,3 inhibitor and a pan inhibitor (i.e. SAHA). Inhibiting HDAC1,2 is sufficient to effect increased acetylation at this histone locus.

H4K12 acetylation = test: Immunofluorescence: H4K12 acetylation in primary cultures (striatum); assay type: cell-based, mouse; settings: 10 uM, 6 h
Description: as §9, §10, §11, §12, §13, §14, §15, §16, §17, §18

[7] = test system: H4K12 acetylation in HEK293 cells; test: Western blot of H4K12 acetylation in whole HEK293 cells; assay type: cell-based; settings: 10 uM, 6 hour
Description: Series of compounds incubated with whole HEK293 cells at 10 uM for a 6 hour time period. Western blot showing increased acetylation levels over DMSO controls using anti-acetyl H4K12 antibodies and horseradish peroxidase conjugated secondary antibody along with a luminol-based substrate.
Relative to the DMSO control, multiple selectivity profiles are effective in increasing H4K12 acetylation levels. […] BRD-4097 is the negative control.
Standard western blotting methods were used to measure the effects of HDAC inhibitors on histone acetylation marks in […]. Series of compounds were incubated with whole HEK293 cells at 10 uM for a 6 hour time period. […] Quantification of the raw western data (FIG. 10) established that relative to the DMSO control, multiple selectivity profiles are effective in increasing H4K12 acetylation levels, and that HDAC 1,2 and HDAC 1,2,3 selective inhibitors have robust HDAC activity in whole cells on a specific histone loci (H4K12).

inhibition of HDAC8 (HDAC8) | inhibition of Class II HDAC enzymes (Class II HDAC enzymes) | blood-brain barrier penetration [4] | brain AUC [4] [µM] | brain Cmax [4] [nM] | overall cell number ([5]; primary cultures (cortex and striatum)) | overall cell number ([5]; primary neuronal cell cultures) | SMILES | tetra-acetylated H2B relative to the vehicle control (tetra-acetylated H2B [1]) | increase in H2B (tetra) histone acetylation in cortex (tetra-acetylated H2B [2]; acute treatment, normalized to histone H3) | levels of tetra-acetylated H2B in the cortex (tetra-acetylated H2B [2]; single systemic dose, adult male C57BL/6J mice) | tetra-acetylated H4 (tetra-acetylated H4) | memory in contextual fear conditioning paradigm (% time freezing) (mice) | selectivity for HDAC1,2 vs. HDAC3 (HDAC1,2 vs. HDAC3) [×] | tetra-acetylated H2B (tetra-acetylated H2B [3]) | increase in acetylation levels for H2BK5 (H2BK5) | increase in H2B tetra-acetylation (H2B acetylation; primary cultures (striatum)) | H2B acetylation (H2B acetylation; primary neuronal cell cultures) | increase in acetylation of histone locus H4K12 [6] | H4K12 acetylation (H4K12 acetylation) | H4K12 acetylation levels relative to DMSO control [7]
does not inhibit | does not inhibit | crosses the blood-brain barrier | 3.9 | 830 | does not cause an increase or decrease | do not cause an increase or decrease | CC(=O)Nc1ccc(C(=O)Nc2cc(-c3cccs3)ccc2N)cc1 [BRD-6929, 4-acetamido-N-(2-amino-5-(thiophen-2-yl)phenyl)benzamide] | increase | 1.5-2 fold | significant increase | significantly increased | improved | 200 | trend toward increasing | 1.5-2 fold | 2-3 fold | significant increase | 5-10 fold | increase | 
 |  |  |  |  |  |  | Nc1ccc(-c2cccs2)cc1NC(=O)c1ccc(/C=C/C(=O)NCCc2ccccn2)cc1 [BRD-9853, (E)-N-(2-amino-5-(thiophen-2-yl)phenyl)-4-(3-oxo-3-(2-(pyridin-2-yl)ethylamino)prop-1-enyl)benzamide] |  |  |  |  |  |  |  |  |  |  |  |  | minimal activity
